Results taken from PMC8464905, “Novel c-Jun N-Terminal Kinase (JNK) Inhibitors with an 11H-Indeno[1,2-b]quinoxalin-11-one Scaffold” (Molecules, 2021).

Tests used:
JNK1-3 = test: KINOMEscan binding, statements for all three JNK isoforms; conditions: summary of Table 3
Procedure: (§1) Selected compounds were submitted for dissociation constant (Kd) determination using KINOMEscan (Eurofins Pharma Discovery, San Diego, CA, USA), as described previously. […] Primary screening at fixed concentrations of compounds was performed in duplicate.

JNK2 = target: T1, JNK2 (Homo sapiens, UniProt P45984); test: KINOMEscan Kd determination, JNK2; conditions: duplicate, mean, N.B. = no binding at < 30 μM
T1 construct: purchased Eurofins Pharma Discovery (KINOMEscan)
Procedure: as §1

IL-6 = test: LPS-induced IL-6 production in MonoMac-6 cells (ELISA); format: cell-based; conditions: Homo sapiens, MONO-MAC-6; 30 min pretreatment, 250 ng/mL LPS for 24 h; read-out: MonoMac-6 Cell IL-6 IC50
Procedure: (§2) All cells were cultured at 37 °C in a humidified atmosphere containing 5% CO2. THP1-Blue cells obtained from InvivoGen (San Diego, CA, USA) were cultured in RPMI 1640 medium (Mediatech Inc., Herndon, VA, USA) supplemented with 10% (v/v) fetal bovine serum (FBS), 100 μg/mL streptomycin, 100 U/mL penicillin, 100 μg/mL phleomycin (Zeocin), and 10 μg/mL blasticidin S. Human monocyte-macrophage MonoMac-6 cells (Deutsche Sammlung von Mikroorganismen und Zellkulturen GmbH, Braunschweig, Germany) were grown in RPMI 1640 medium supplemented with 10% (v/v) FBS, 10 μg/mL bovine insulin, 100 μg/mL streptomycin, and 100 U/mL penicillin.
A human IL-6 ELISA kit (BD Biosciences, San Jose, CA, USA) was measure IL-6 production. MonoMac-6 cells were plated in 96-well plates at a density of 2 × 10^5 cells/well in culture medium supplemented with 3% (v/v) endotoxin-free FBS. The cells were pretreated with test compound or DMSO for 30 min, followed by addition of 250 ng/mL LPS for 24 h. IC50 values for IL-6 production were calculated by plotting percentage inhibition against the logarithm of inhibitor concentration (at least five points).

[1] = CellTiter-Glo cytotoxicity in MonoMac-6 cells; format: cell-based, human; conditions: human, MonoMac-6 cells; 24-h incubation, up to 50 μM; read-out: MonoMac-6 Cell Cytotoxicity IC50
Procedure: as §2
(§3) Cytotoxicity was analyzed with a CellTiter-Glo Luminescent Cell Viability Assay Kit from Promega (Madison, WI, USA), according to the manufacturer’s protocol. Cells were treated with compounds under investigation and incubated for 24 h. After treatment, the cells were equilibrated to room temperature for 30 min, substrate was added, and the samples were analyzed with a Fluoroscan Ascent FL (Thermo Fisher Scientific, Waltham, MA, USA). The IC50 values were calculated by plotting percentage inhibition against the logarithm of inhibitor concentration (at least five points).

JNK3 = target: T2, JNK3 (Homo sapiens, UniProt P53779); test: KINOMEscan Kd determination, JNK3; conditions: duplicate, mean, N.B. = no binding at < 30 μM
T2 construct: purchased Eurofins Pharma Discovery (KINOMEscan)
Procedure: as §1

JNK1 = target: T3, JNK1 (Homo sapiens, UniProt P45983); test: KINOMEscan Kd determination, JNK1; conditions: duplicate, mean, N.B. = no binding at < 30 μM
T3 construct: purchased Eurofins Pharma Discovery (KINOMEscan)
Procedure: as §1

[2] = CellTiter-Glo cytotoxicity in THP-1Blue cells; format: cell-based, human; conditions: human, THP-1Blue cells; 24-h incubation, up to 50 μM; read-out: THP-1Blue Cell Cytotoxicity IC50
Procedure: as §2, §3

NF-κB/AP-1 = test: LPS-induced NF-κB/AP-1 alkaline phosphatase reporter assay in THP1-Blue cells; format: cell-based; conditions: Homo sapiens; 30 min pretreatment, 250 ng/mL LPS for 24 h; read-out: THP-1Blue Cell NF-κB/AP-1 IC50
Procedure: as §2
Activation of AP-1/NF-κB was measured using an alkaline phosphatase reporter gene assay in THP1-Blue cells. Human monocytic THP-1 Blue cells are stably transfected with a secreted embryonic alkaline phosphatase gene that is under the control of a promoter inducible by NF-κB/AP-1. THP1-Blue cells (2 × 10^5 cells/well) were pretreated with test compound or DMSO for 30 min, followed by addition of 250 ng/mL lipopolysaccharide (LPS) for 24 h, and alkaline phosphatase activity was measured in cell supernatants using QUANTI-Blue mix (InvivoGen) as absorbance at 655 nm and compared with positive control samples (LPS). For selected compounds, the concentrations of inhibitor that caused 50% inhibition of the NF-κB reporter activity (IC50) were calculated.

THP-1Blue cells = test: CellTiter-Glo cytotoxicity in THP-1Blue cells; format: cell-based, human; conditions: 24-h incubation, up to 50 μM
Procedure: as §2, §3

MonoMac-6 cells = test: CellTiter-Glo cytotoxicity in MonoMac-6 cells; format: cell-based, human; conditions: 24-h incubation, up to 50 μM
Procedure: as §2, §3

T1 sequence (P45984 whole entry): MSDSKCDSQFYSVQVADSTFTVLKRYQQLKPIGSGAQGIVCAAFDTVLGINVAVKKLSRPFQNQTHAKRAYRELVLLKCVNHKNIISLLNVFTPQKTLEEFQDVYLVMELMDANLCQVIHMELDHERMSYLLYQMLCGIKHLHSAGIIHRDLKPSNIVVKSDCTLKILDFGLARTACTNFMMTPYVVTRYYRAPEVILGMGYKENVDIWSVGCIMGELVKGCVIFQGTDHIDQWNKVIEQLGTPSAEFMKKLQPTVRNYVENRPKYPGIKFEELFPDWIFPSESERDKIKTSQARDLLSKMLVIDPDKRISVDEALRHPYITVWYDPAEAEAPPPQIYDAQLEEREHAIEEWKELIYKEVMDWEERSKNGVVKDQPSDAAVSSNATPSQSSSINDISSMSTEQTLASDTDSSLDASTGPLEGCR
T3 sequence (P45983 whole entry): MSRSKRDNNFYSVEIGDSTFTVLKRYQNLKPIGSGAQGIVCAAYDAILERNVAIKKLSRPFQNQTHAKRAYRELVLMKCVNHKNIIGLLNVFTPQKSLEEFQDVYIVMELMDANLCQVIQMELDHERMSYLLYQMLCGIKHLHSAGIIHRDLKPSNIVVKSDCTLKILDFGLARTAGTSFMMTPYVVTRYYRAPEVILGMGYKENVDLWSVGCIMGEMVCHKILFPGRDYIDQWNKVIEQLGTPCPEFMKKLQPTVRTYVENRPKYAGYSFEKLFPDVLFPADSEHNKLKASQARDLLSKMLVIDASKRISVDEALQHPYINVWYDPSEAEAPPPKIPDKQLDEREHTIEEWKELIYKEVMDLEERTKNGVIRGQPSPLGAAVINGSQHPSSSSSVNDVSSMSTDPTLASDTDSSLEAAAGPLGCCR
T2 sequence (P53779 whole entry): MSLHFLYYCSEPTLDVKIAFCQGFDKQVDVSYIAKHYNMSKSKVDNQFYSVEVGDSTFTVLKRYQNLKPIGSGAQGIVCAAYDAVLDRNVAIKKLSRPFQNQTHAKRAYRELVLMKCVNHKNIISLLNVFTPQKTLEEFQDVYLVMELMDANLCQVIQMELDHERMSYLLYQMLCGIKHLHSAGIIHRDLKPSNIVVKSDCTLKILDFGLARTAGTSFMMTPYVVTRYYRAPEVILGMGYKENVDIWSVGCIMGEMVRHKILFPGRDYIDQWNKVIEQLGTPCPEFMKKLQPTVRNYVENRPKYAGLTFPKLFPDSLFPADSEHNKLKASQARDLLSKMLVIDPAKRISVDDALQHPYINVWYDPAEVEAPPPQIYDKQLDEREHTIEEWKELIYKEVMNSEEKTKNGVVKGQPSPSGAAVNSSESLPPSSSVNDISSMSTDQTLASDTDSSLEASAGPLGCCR

With `ON=C1c2ccccc2-c2nc3c(Cl)cccc3nc21` [Compound 4b, 6-Chloro-11H-indeno[1,2-b]quinoxalin-11-one Oxime] as the compound, how does the “Binding affinity (Kd) for all three JNK isoforms, in words” value (from here on “Binding affinity (Kd)”) (JNK1-3) read?
Its value is “submicromolar”.

And the Kd (JNK2)?
The Kd was 220 ± 60 nM.

What about the IC50 (IL-6) of the same compound?
The IC50 was 1200 ± 400 nM.

And the IC50 at 24 h [1]?
The IC50 at 24 h was greater than 50000 nM.

And the Kd (JNK3)?
Its Kd is 140 ± 30 nM.

What about the Kd (JNK1) of the same compound?
Its Kd is 170 ± 40 nM.

What about the melting point of the same compound?
Its melting point is 270 to 271 °C.

And the IC50 at 24 h [2]?
Its IC50 at 24 h is greater than 50000 nM.

And the IC50 (NF-κB/AP-1)?
The IC50 was 900 ± 300 nM.

For `COC(=O)c1ccc2nc3c(nc2c1)C(=NO)c1ccccc1-3` [Compound 4l, Methyl-11-(hydroxyimino)-11H-indeno[1,2-b]quinoxaline-8-carboxylate], which “Binding affinity (Kd)” value (JNK1-3) is on record?
The value was “submicromolar”.

What about the Kd (JNK2) of the same compound?
Its Kd is 2400 ± 200 nM.

What about the IC50 (IL-6) of the same compound?
The IC50 was greater than 50000 nM.

And the IC50 at 24 h [1]?
The IC50 at 24 h was greater than 50000 nM.

And the Kd (JNK3)?
The Kd was 710 ± 50 nM.

What about the Kd (JNK1) of the same compound?
The Kd was 910 ± 160 nM.

What about the melting point of the same compound?
Its melting point is 300 to 301 °C.

And the IC50 at 24 h [2]?
Its IC50 at 24 h is 26100 ± 5300 nM.

What about the “THP-1Blue Cell Cytotoxicity IC50” value (THP-1Blue cells) of the same compound?
The value was “exhibited cytotoxicity”.

Which Kd (JNK2) does the source give for `ON=C1c2ccccc2-c2nc3cc(F)c(Cl)cc3nc21` [Compound 4k, 8-Chloro-7-fluoro-11H-indeno[1,2-b]quinoxalin-11-one Oxime] here?
The Kd was greater than 30000 nM.

What about the IC50 (IL-6) of the same compound?
The IC50 was 2300 ± 400 nM.

What about the IC50 at 24 h [1] of the same compound?
The IC50 at 24 h was greater than 50000 nM.

And the Kd (JNK3)?
The Kd was 24500 ± 2100 nM.

What about the Kd (JNK1) of the same compound?
Its Kd is greater than 30000 nM.

And the melting point?
The melting point was 276 to 277 °C.

And the IC50 at 24 h [2]?
Its IC50 at 24 h is greater than 50000 nM.

And the IC50 (NF-κB/AP-1)?
The IC50 was 600 ± 200 nM.

Which “Binding affinity (Kd)” value (JNK1-3) does the source give for `ON=C1c2ccccc2-c2nc3cc(F)ccc3nc21` [Compound 4a, 7-Fluoro-11H-indeno[1,2-b]quinoxalin-11-one Oxime] here?
The value was “submicromolar”.

What about the Kd (JNK2) of the same compound?
The Kd was 620 ± 10 nM.

And the IC50 (IL-6)?
The IC50 was 3000 ± 600 nM.

What about the IC50 at 24 h [1] of the same compound?
The IC50 at 24 h was greater than 50000 nM.

What about the Kd (JNK3) of the same compound?
The Kd was 190 ± 10 nM.

And the Kd (JNK1)?
The Kd was 280 ± 70 nM.

What about the melting point of the same compound?
Its melting point is 250 to 251 °C.

And the IC50 at 24 h [2]?
The IC50 at 24 h was greater than 50000 nM.

What about the IC50 (NF-κB/AP-1) of the same compound?
The IC50 was 300 ± 100 nM.

For `ON=C1c2ccccc2-c2nc3c(F)cc(F)cc3nc21` [Compound 4e, 6,8-Difluoro-11H-indeno[1,2-b]quinoxalin-11-one Oxime], which “Binding affinity (Kd)” value (JNK1-3) is on record?
Its value is “submicromolar”.

And the Kd (JNK2)?
The Kd was 1600 ± 10 nM.

What about the IC50 (IL-6) of the same compound?
The IC50 was 2200 ± 200 nM.

What about the IC50 at 24 h [1] of the same compound?
Its IC50 at 24 h is greater than 50000 nM.

And the Kd (JNK3)?
Its Kd is 900 ± 300 nM.

And the Kd (JNK1)?
Its Kd is 920 ± 50 nM.

And the melting point?
Its melting point is 255 to 256 °C.

What about the IC50 at 24 h [2] of the same compound?
The IC50 at 24 h was greater than 50000 nM.

What about the IC50 (NF-κB/AP-1) of the same compound?
The IC50 was 400 ± 100 nM.

For `CC(C)(C)c1ccc2nc3c(nc2c1)-c1ccccc1/C3=N/O` [Compound 4d, (11Z/E)-7-tert-Butyl-11H-indeno[1,2-b]quinoxalin-11-one Oxime], which “Binding affinity (Kd)” value (JNK1-3) is on record?
The value was “relatively low affinity”.

What about the Kd (JNK2) of the same compound?
The Kd was 1600 ± 600 nM.

What about the IC50 (IL-6) of the same compound?
The IC50 was 1000 ± 200 nM.

What about the IC50 at 24 h [1] of the same compound?
Its IC50 at 24 h is greater than 50000 nM.

And the Kd (JNK3)?
The Kd was 3100 ± 200 nM.

And the Kd (JNK1)?
Its Kd is 3100 ± 100 nM.

What about the melting point of the same compound?
The melting point was 197 to 198 °C.

What about the IC50 at 24 h [2] of the same compound?
Its IC50 at 24 h is greater than 50000 nM.

What about the IC50 (NF-κB/AP-1) of the same compound?
Its IC50 is 400 ± 100 nM.

With `O/N=C1/c2ccccc2-c2nc3c(Cl)cc(C(F)(F)F)cc3nc21` [Compound 4i, (11Z/E)-6-Chloro-8-(trifluoromethyl)-11H-indeno[1,2-b]quinoxalin-11-one Oxime] as the compound, how does the “Binding affinity (Kd)” value (JNK1-3) read?
Its value is “inactive”.

And the Kd (JNK2)?
The Kd was greater than 30000 nM.

And the IC50 (IL-6)?
The IC50 was 6200 ± 200 nM.

What about the IC50 at 24 h [1] of the same compound?
The IC50 at 24 h was greater than 50000 nM.

And the Kd (JNK3)?
The Kd was greater than 30000 nM.

And the Kd (JNK1)?
The Kd was greater than 30000 nM.

And the melting point?
The melting point was 324 to 325 °C.

And the IC50 at 24 h [2]?
The IC50 at 24 h was greater than 50000 nM.

What about the IC50 (NF-κB/AP-1) of the same compound?
Its IC50 is 2900 ± 900 nM.

Which “Binding affinity (Kd)” value (JNK1-3) does the source give for `ON=C1c2ccccc2-c2nc3c(C(F)(F)F)cc(C(F)(F)F)cc3nc21` [Compound 4j, 6,8-bis(Trifluoromethyl)-11H-indeno[1,2-b]quinoxalin-11-one oxime] here?
The value was “inactive”.

And the Kd (JNK2)?
Its Kd is greater than 30000 nM.

And the IC50 (IL-6)?
The IC50 was 4800 ± 500 nM.

And the IC50 at 24 h [1]?
The IC50 at 24 h was greater than 50000 nM.

And the Kd (JNK3)?
Its Kd is greater than 30000 nM.

And the Kd (JNK1)?
Its Kd is greater than 30000 nM.

What about the melting point of the same compound?
The melting point was 253 to 254 °C.

What about the IC50 at 24 h [2] of the same compound?
The IC50 at 24 h was 36500 ± 1900 nM.

And the “THP-1Blue Cell Cytotoxicity IC50” value (THP-1Blue cells)?
Its value is “exhibited cytotoxicity”.

What does the source list for `ON=C1c2ccccc2-c2nc3c(F)c(F)ccc3nc21` [Compound 4g, 6,7-Difluoro-11H-indeno[1,2-b]quinoxalin-11-one Oxime]?
Kd (JNK2): 910 ± 60 nM; IC50 at 24 h [1]: 32000 ± 2200 nM; MonoMac-6 Cell Cytotoxicity IC50 (MonoMac-6 cells): cytotoxic; Kd (JNK3): 1100 ± 100 nM; Kd (JNK1): 520 ± 90 nM; melting point: 257 to 258 °C; IC50 at 24 h [2]: > 50000 nM; IC50 (NF-κB/AP-1): 2100 ± 400 nM
